Data published in patent US20230096766A1, “AMINO ACID HAVING FUNCTIONAL GROUP CAPABLE OF INTERMOLECULAR HYDROGEN BONDING, PEPTIDE COMPOUND CONTAINING SAME AND METHOD FOR PRODUCTION THEREOF” (Chugai Seiyaku Kabushiki Kaisha, priority 2018, published 2023).
*1 amine or outer side, *2 acyl side, *3 side chain or, on linkers, in order; H or OH if unused. Where a SMILES comes first, the peptide text is derived from it. Bridges are numbered along the chain shown (N, C = ends). [ ]: non-standard residue; d: D form. The star is where a group is joined. ξ: configuration not given here. NMeAbu(3,3-F2-piperidino) = CN[C@@H](CCN1CCCC(F)(F)C1)C(=O)O; hPhe(3-OMe,4-CONHMe) = CNC(=O)c1ccc(CC[C@H](N)C(=O)O)cc1OC; Phe(4-COOH) = N[C@@H](Cc1ccc(C(=O)O)cc1)C(=O)O; X11 = CNC(=O)c1ccc(CCN(CC(=O)[*:2])[*:1])cc1OC; NMePhe(3-Cl) = CN[C@@H](Cc1cccc(Cl)c1)C(=O)O; X12 = O=C([C@H](CCCC(O)C(F)(F)F)N[*:1])[*:2]; ξGln(SO2Me) = CS(=O)(=O)NC(=O)CCC(N)C(=O)O; NMehPhe = CN[C@@H](CCc1ccccc1)C(=O)O; Ethyl(2-morpholino) = C1CN(CC*)CCO1; X6 = O=C([C@H](CCCCO)N[*:1])[*:2]; NMeF = CN[C@@H](Cc1ccccc1)C(=O)O; NMeI = CC[C@H](C)[C@H](NC)C(=O)O; NMeD = CN[C@@H](CC(=O)O)C(=O)O; CH2CONHtBu = CC(C)(C)NC(=O)C*; NMeL = CN[C@@H](CC(C)C)C(=O)O; Propyl(2R-OH) = C[C@@H](O)C*; NMeV = CN[C@H](C(=O)O)C(C)C; NMeAbu = CC[C@H](NC)C(=O)O; NMeA = CN[C@@H](C)C(=O)O; Piperidide = C1CCN(*)CC1; dAbu = CC[C@@H](N)C(=O)O; CH2CMe2OH = CC(C)(O)C*; NBuGly = CCCCNCC(=O)O; Isopentyl = CC(C)CC*; NPrGly = CCCNCC(=O)O; ξS = NC(CO)C(=O)O; N(OH)Me = CN(O)*; X3 = C[C@H](O)C*; Sar = CNCC(=O)O; tBu = CC(C)(C)*

Test: in vitro
Conditions: human, Caco-2, Caco-2

Compound	Papp [×10⁻⁶ cm/s]
CCCCN1CC(=O)N(C)[C@@H](Cc2ccccc2)C(=O)N(C)[C@@H](CC(C)C)C(=O)N[C@@H](C(C)C)C(=O)N(C)[C@@H](CC(C)C)C(=O)N[C@H](C(=O)N2CCCCC2)CC(=O)N(C)CC(=O)N(C)[C@@H](CC(C)C)C(=O)NC(COCCN2CCOCC2)C(=O)N(C)[C@@H](CC(C)C)C(=O)N[C@@H]([C@@H](C)O)C1=O (stereo partly drawn) [pd484] ([Sar][NMeL][ξS](Ethyl(2-morpholino))[NMeL]T[NBuGly][NMeF][NMeL]V[NMeL]D-Piperidide; lactam N-11)	1.8
CCCCN1CC(=O)N(C)[C@@H](C(C)C)C(=O)N[C@H](C(=O)N2CCCCC2)CC(=O)N(C)[C@@H](CC)C(=O)N[C@@H](CC(C)C)C(=O)N(C)[C@@H](CC(C)C)C(=O)N(C)[C@@H](Cc2ccccc2)C(=O)NC(CCC(=O)NS(C)(=O)=O)C(=O)N(C)[C@@H](Cc2ccccc2)C(=O)N(C)[C@@H](CC(C)C)C(=O)N[C@@H](CC(C)C)C1=O (stereo partly drawn) [pd69] ([NMeAbu]L[NMeL][NMeF][ξGln(SO2Me)][NMeF][NMeL]L[NBuGly][NMeV]D-Piperidide; lactam N-11)	< 0.14
CCCCN1CC(=O)N(C)[C@@H](CC(C)C)C(=O)N[C@@H](COC(C)(C)C)C(=O)N(C)[C@@H](Cc2ccccc2)C(=O)N(C)[C@@H](C(C)C)C(=O)N[C@H](C(=O)N2CCCCC2)CC(=O)N[C@H](C)C(=O)N(C)[C@@H](Cc2ccccc2)C(=O)N[C@@H](CC(C)C)C(=O)N(C)[C@@H](CCN2CCCC(F)(F)C2)C(=O)N[C@@H]([C@@H](C)O)C1=O [pd386] ([dA][NMeF]L[NMeAbu(3,3-F2-piperidino)]T[NBuGly][NMeL]S(tBu)[NMeF][NMeV]D-Piperidide; lactam N-11)	2.3

Same assay, conditions: human, Caco-2, Caco-2 (cm/sec)

Compound	Papp [×10⁻⁶ cm/s]
CCCN1CC(=O)N(C)[C@@H](Cc2ccccc2)C(=O)N(C)[C@@H](CC(C)C)C(=O)N[C@@H](COCCC(C)C)C(=O)N(C)[C@@H](CC(C)C)C(=O)N[C@H](C(=O)N2CCCCC2)CC(=O)N(C)CC(=O)N(C)[C@@H](Cc2cccc(Cl)c2)C(=O)N[C@@H](COC[C@H](C)O)C(=O)N(C)[C@@H](CC(C)C)C(=O)N[C@@H]([C@@H](C)O)C1=O [AP67] ([Sar][NMePhe(3-Cl)]S(X3)[NMeL]T[NPrGly][NMeF][NMeL]S(Isopentyl)[NMeL]D-Piperidide; lactam N-11)	0.71
CCCCN1CC(=O)N(C)[C@@H](Cc2ccccc2)C(=O)N[C@@H](COCC(=O)NC(C)(C)C)C(=O)N(C)[C@@H](CC(C)C)C(=O)N[C@@H]([C@@H](C)O)C(=O)N(CCC)CC(=O)N(C)[C@@H](Cc2ccccc2)C(=O)N(C)[C@@H](CC(C)C)C(=O)N[C@@H](CC(C)C)C(=O)N(C)[C@@H](C)C(=O)N[C@H](C(=O)N2CCCCC2)CC1=O [AP17] ([NBuGly][NMeF]S(CH2CONHtBu)[NMeL]T[NPrGly][NMeF][NMeL]L[NMeA]D-Piperidide; lactam N-11)	0.72
CC(C)C[C@@H]1NC(=O)[C@H](Cc2ccccc2)N(C)C(=O)[C@H](CC(C)C)N(C)C(=O)[C@H](COCC(=O)NC(C)(C)C)NC(=O)[C@H](CC(C)C)N(C)C(=O)C[C@@H](C(=O)N2CCCCC2)NC(=O)[C@H](C)N(C)C(=O)CN(C)C(=O)[C@H]([C@@H](C)O)NC(=O)[C@H](CC(C)C)N(C)C(=O)[C@H](CCc2ccccc2)N(C)C1=O [AP14] ([NMeL]S(CH2CONHtBu)[NMeL][NMeF]L[NMehPhe][NMeL]T[Sar][NMeA]D-Piperidide; lactam N-11)	0.39
CC[C@H]1NC(=O)C[C@@H](C(=O)N2CCCCC2)NC(=O)[C@H](CC(C)C)N(C)C(=O)[C@H](Cc2cccc(Cl)c2)N(C)C(=O)[C@H](CCCCO)NC(=O)[C@H](CC(C)C)N(C)C(=O)CN(C)C(=O)[C@H]([C@@H](C)O)NC(=O)[C@H](CC(C)C)N(C)C(=O)[C@H](CC(C)C)NC(=O)[C@H](CCc2ccccc2)N(C)C1=O [Compound B02] ([dAbu][NMehPhe]L[NMeL]T[Sar][NMeL][X6][NMePhe(3-Cl)][NMeL]D-Piperidide; lactam N-11)	0.15
CC[C@H](C)[C@H]1C(=O)N[C@@H](COC[C@@H](C)O)C(=O)N(C)CC(=O)N(C)[C@@H](CC(C)C)C(=O)N[C@H](C(=O)N2CCCCC2)CC(=O)N(C)[C@@H](C)C(=O)N[C@@H](CC(C)C)C(=O)N(C)[C@@H](CC(C)C)C(=O)N(C)[C@@H](Cc2ccccc2)C(=O)N[C@@H](CC(C)C)C(=O)N(C)[C@@H](Cc2ccccc2)C(=O)N1C [AP85] ([NMeA]L[NMeL][NMeF]L[NMeF][NMeI]S(Propyl(2R-OH))[Sar][NMeL]D-Piperidide; lactam N-11)	5.2
CC(C)C[C@@H]1NC(=O)[C@H](Cc2ccccc2)N(C)C(=O)[C@@H](C(C)C)NC(=O)C[C@@H](C(=O)N2CCCCC2)NC(=O)[C@H](CC(C)C)N(C)C(=O)[C@H](Cc2cccc(Cl)c2)N(C)C(=O)[C@H](COC[C@@H](C)O)NC(=O)[C@H](CC(C)C)N(C)C(=O)CN(C)C(=O)[C@H]([C@@H](C)O)NC(=O)[C@H](CC(C)C)N(C)C1=O [AP72] ([dV][NMeF]L[NMeL]T[Sar][NMeL]S(Propyl(2R-OH))[NMePhe(3-Cl)][NMeL]D-Piperidide; lactam N-11)	0.95
CC(C)C[C@@H]1NC(=O)[C@H](Cc2ccccc2)N(C)C(=O)[C@H](C)NC(=O)C[C@@H](C(=O)N2CCCCC2)N(C)C(=O)[C@H](Cc2ccccc2)N(C)C(=O)[C@H](Cc2ccccc2)N(C)C(=O)[C@H](COC(C)(C)C)NC(=O)[C@H](CC(C)C)N(C)C(=O)CN(C)C(=O)[C@H]([C@@H](C)O)NC(=O)[C@H](CC(C)C)N(C)C1=O [pd209] (A[NMeF]L[NMeL]T[Sar][NMeL]S(tBu)[NMeF][NMeF][NMeD]-Piperidide; lactam N-11)	1.7
CCCCN1CC(=O)N[C@@H](CC(C)C)C(=O)N2CCC[C@H]2C(=O)N(C)[C@@H](C(C)C)C(=O)N[C@@H](CCc2ccc(C(=O)NC)c(OC)c2)C(=O)N(C)[C@@H](Cc2ccccc2)C(=O)N(C)[C@@H](CC(C)C)C(=O)N[C@@H](CC(C)C)C(=O)N(C)[C@@H]([C@@H](C)CC)C(=O)N[C@H](C(=O)N2CCCCC2)CC(=O)N[C@H](C(C)C)C(=O)N[C@@H]([C@@H](C)O)C1=O [AP265] ([dV]T[NBuGly]LP[NMeV][hPhe(3-OMe,4-CONHMe)][NMeF][NMeL]L[NMeI]D-Piperidide; lactam N-12)	0.46
CC[C@H]1C(=O)N(C)[C@@H](Cc2ccccc2)C(=O)N[C@@H](C)C(=O)N(C)[C@@H](CC(C)C)C(=O)N(C)[C@@H](CC(C)C)C(=O)N[C@@H]([C@@H](C)O)C(=O)N(CCc2ccc(C(=O)NC)c(OC)c2)CC(=O)N(C)[C@@H](CC(C)C)C(=O)N[C@H](C(=O)N2CCCCC2)CC(=O)N(C)[C@@H](C(C)C)C(=O)N[C@@H](CC(C)C)C(=O)N1C [AP217] ([NMeV]L[NMeAbu][NMeF]A[NMeL][NMeL]T[X11][NMeL]D-Piperidide; lactam N-11)	1
CCCN1CC(=O)N(C)[C@@H](Cc2cccc(Cl)c2)C(=O)N(C)[C@@H](CC(C)C)C(=O)N[C@@H](COC(C)(C)C)C(=O)N(C)[C@@H](CC(C)C)C(=O)N[C@H](C(=O)N2CCCCC2)CC(=O)N(C)CC(=O)N(C)[C@@H](Cc2ccccc2)C(=O)N[C@@H](COCC(C)(C)O)C(=O)N(C)[C@@H](CC(C)C)C(=O)N[C@@H]([C@@H](C)O)C1=O [AP07] ([Sar][NMeF]S(CH2CMe2OH)[NMeL]T[NPrGly][NMePhe(3-Cl)][NMeL]S(tBu)[NMeL]D-Piperidide; lactam N-11)	1.3
CC[C@H]1C(=O)N[C@@H]([C@@H](C)O)C(=O)N(C)CC(=O)N(C)[C@@H](Cc2ccccc2)C(=O)N(C)[C@@H](CC(C)C)C(=O)N[C@@H](COC(C)(C)C)C(=O)N(C)[C@@H](CC(C)C)C(=O)N[C@H](C(=O)N2CCCCC2)CC(=O)N(CCc2ccc(C(=O)NC)c(OC)c2)CC(=O)N(C)[C@@H](CC(C)C)C(=O)N[C@@H](CC(C)C)C(=O)N1C [AP219] ([X11][NMeL]L[NMeAbu]T[Sar][NMeF][NMeL]S(tBu)[NMeL]D-Piperidide; lactam N-11)	1.3
CC[C@H](C)[C@@H]1NC(=O)[C@H](CC(C)C)N(C)C(=O)CN(C)C(=O)C[C@@H](C(=O)N2CCCCC2)NC(=O)[C@H](CC(C)C)N(C)C(=O)[C@H](Cc2ccc(C(=O)N(C)O)cc2)NC(=O)[C@H](CC(C)C)N(C)C(=O)[C@H](Cc2cccc(Cl)c2)N(C)C(=O)CN(C)C(=O)[C@H]([C@@H](C)O)NC(=O)[C@H](CC(C)C)N(C)C1=O [AP255] ([Sar][NMeL]I[NMeL]T[Sar][NMePhe(3-Cl)][NMeL][Phe(4-COOH)](N(OH)Me)[NMeL]D-Piperidide; lactam N-11)	0.05

Same assay, conditions: human, Caco-2, Caco-2 (cm/sec) Papp

Compound	Papp [×10⁻⁶ cm/s]
CC(C)C[C@@H]1NC(=O)[C@H]([C@@H](C)O)NC(=O)[C@H](CC(C)C)N(C)C(=O)C[C@@H](C(=O)N2CCCCC2)NC(=O)[C@H](COC(C)(C)C)NC(=O)[C@H](Cc2ccccc2)NC(=O)[C@H](C)N(C)C(=O)[C@H](Cc2ccccc2)NC(=O)CN(C)C(=O)[C@H](Cc2ccccc2)N(C)C(=O)[C@H](Cc2ccccc2)N(C)C1=O [pd245] ([NMeL]TL[NMeF][NMeF][Sar]F[NMeA]FS(tBu)D-Piperidide; lactam N-11)	0.019

Same assay, conditions: human, Caco-2, Caco-2 (membrane permeability)

Compound	Papp [×10⁻⁶ cm/s]
CCCCN1CC(=O)N(C)[C@@H](CC(C)C)C(=O)N[C@@H](CCCC(O)C(F)(F)F)C(=O)N(C)[C@@H](Cc2ccccc2)C(=O)N(C)[C@@H](C(C)C)C(=O)N[C@H](C(=O)N2CCCCC2)CC(=O)N[C@H](C(C)C)C(=O)N(C)[C@@H](Cc2ccccc2)C(=O)N[C@@H](CC(C)C)C(=O)N(C)[C@@H](CC(C)C)C(=O)N[C@@H]([C@@H](C)O)C1=O (stereo partly drawn) [Compound D09] ([dV][NMeF]L[NMeL]T[NBuGly][NMeL][X12][NMeF][NMeV]D-Piperidide; lactam N-11)	0.13
CCCCN1CC(=O)N(C)[C@@H](Cc2ccccc2)C(=O)N(C)[C@@H](CC(C)C)C(=O)N[C@@H](COC(C)(C)C)C(=O)N(C)[C@@H](CC(C)C)C(=O)N[C@H](C(=O)N2CCCCC2)CC(=O)N(C)CC(=O)N(C)[C@@H](Cc2ccccc2)C(=O)N[C@@H](C(C)C)C(=O)N(C)[C@@H](CC)C(=O)N[C@@H](CCCC(O)C(F)(F)F)C1=O (stereo partly drawn) [Compound D16] ([Sar][NMeF]V[NMeAbu][X12][NBuGly][NMeF][NMeL]S(tBu)[NMeL]D-Piperidide; lactam N-11)	0.51
